Publication PMC5699024 (Proceedings of the National Academy of Sciences of the …, 2017)
“Also recorded” adds a separate entry of the source.

How the values were obtained:
AND T cells [1] = assay: ICAM-YFP distribution and T cell contact with supported membrane; assay type: cell-based, mouse; conditions: 1 h pretreatment
AND T cells [2] = assay: ZAP70-EGFP recruitment and cell morphology; assay type: cell-based, mouse; conditions: for ZAP70 recruitment to plasma membrane / cell morphology: T102S/MHC well below, MCC/MHC above NFAT threshold; for linear ZAP70-EGFP trajectories: ∼5-min window, TIRF
5c.c7 TCR = assay: single-molecule pMHC:TCR dwell time in live T cells; assay type: binding, mouse; conditions: almost four orders of magnitude of pMHC density
AND T cells [3] = assay: NFAT translocation assay; assay type: cell-based, mouse; conditions: MCC/MHC:AND; unlabeled CD80 on bilayer (200 molecules per micrometer)
CD28 [4] = target: T1, CD28 (Mus musculus, UniProt P31041); assay: single-molecule CD80:CD28 binding in AND T cells; conditions: 3-s time lapse, ∼10 cells, one experiment
T1 sequence (P31041 20-218): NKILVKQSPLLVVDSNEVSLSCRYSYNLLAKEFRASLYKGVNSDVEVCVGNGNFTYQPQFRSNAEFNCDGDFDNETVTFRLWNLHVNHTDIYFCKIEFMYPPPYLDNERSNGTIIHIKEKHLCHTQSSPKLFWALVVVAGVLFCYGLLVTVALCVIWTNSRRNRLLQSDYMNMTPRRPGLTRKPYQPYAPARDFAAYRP

CD28 [5] = conditions: CD80:CD28 solution affinity, comparable with pMHC:TCR; ref [25], [32]–[34]; cited from earlier work

Row | Compound | ZAP70 recruitment to plasma membrane (AND T cells [2]) | cell morphology (AND T cells [2]) | linear ZAP70-EGFP trajectories (AND T cells [2]) | further results
1 | COC(=O)[C@H](CC(C)C)NC(=O)c1ccc(NC[C@@H](N)CS)cc1-c1cccc2ccccc12 [GGTI-298] | – | – | – | ICAM-YFP distribution (AND T cells [1]): relatively even ICAM-YFP distribution across the T cell; probability of T cell landing on supported membrane (AND T cells [1]): decreased the probability of the T cell’s landing on the supported membrane
2 | ANERADLIAYLKQASK [T102S] | low levels | asymmetric, crawling morphology | asymmetric | –
3 | ANERADLIAYLKQATK [MCC, moth cytochrome c (amino acids 88–103)] | enhanced ZAP70 recruitment | stationary, centrosymmetric cell morphology | centrosymmetric | 〈τoff〉 over pMHC density titration (5c.c7 TCR): remains constant
4 | CD80: decahistidine-tagged CD80 protein expressed in High Five cells; costimulatory ligand of CD28 | – | – | – | effect of CD80 on NFAT threshold density, MCC (AND T cells [3]): lowers the NFAT threshold density; CD80:CD28 〈τoff〉 versus pMHC density (CD28 [4]): constant as a function of pMHC density; also recorded: constant with respect to pMHC density; solution affinity (CD28 [5]): low micromolar range
